Test results: article PMC2858449 (Journal of immunology (Baltimore, Md. : 1950), 2009)
Like-named read-outs stand apart in the source and are kept apart here.

Experiments:
CD8^+ T cells [1] = type: cell-based, BALB/c mice; conditions: intracellular IFN-γ
CD8^+ T cells [2] = experiment: Intracellular cytokine staining for IFN-γ, IL-2 and TNF-α; type: cell-based, BALB/c mice; conditions: HIV-1BaL Env-immunized mice (DNA-primed/rAd-boosted); peptide stimulation

IGPGRAFYTT [PT10]
recall response to peptide (in words) (CD8^+ T cells [1]; mice immunized with the HIV-1IIIB vaccine): failed to respond

RGPGRAFVTI [P18I10, reference compound]
recall response to peptide (in words) (CD8^+ T cells [1]; mice primed with HIV-1BaL DNA and boosted with rAd): did not respond

IGPGRAFYA [PA9]
proportion of triple-positive (IFN-γ, IL-2, TNF-α) CD8^+ T cells (CD8^+ T cells [2]): 46%
